Source: publication PMC6433934, “Preclinical Evaluation of Bispecific Adaptor Molecule Controlled Folate Receptor CAR-T Cell Therapy With Special Focus on Pediatric Malignancies” (Frontiers in Oncology, 2019)

Columns and labels:
[1] = EC17 dose finding safety study, tumor-free mice; format: in vivo; set-up: key to CRS grade: 0: normal (no CRS); 1: mild; 2: light-to-moderate; 3–4: severe CRS; 5: death (due to severe CRS); details: ~10 million E2-CAR-T cells
Excerpt: For MDA-MB-231 studies, mice received a high dose (~10 million) of a “clinical facsimile” of E2-CAR-T cells (~39% EGFRt+) with a low differentiation profile. Two days later, we started them with 3 different treatment regimens of EC17 at an average tumor size of ~293 ± 39 mm^3. The EC17 dosing was given once-a-week (SIW) at 500 nmol/kg on Mondays, or as escalating doses of 5, 50, or 100, and 500 or 1,000 nmol/kg on Monday, Thursday, and Monday with a 6 day break in-between cycles. Control mice were left untreated (received CAR-T cells but no EC17). For comparison, a cohort of tumor-free littermates also received the same number of CAR-T cells without or with EC17 SIW at 500 nmol/kg. To study the effect of high dietary folate, two sets of NSG mice were placed on either a FA-replete diet (4 mg/kg, Envigo, Indianapolis, IN) or a FA-deficient diet (TestDiet, St. Louis, MO) upon arrival. […]
(§1) Depending on the CAR-T cell dose and how EC17 is administered, tumor-bearing mice receiving FITC-specific CAR-T cells can experience severe CRS and varying degrees of body weight loss ([27], [33], [34]). […] On the days immediately following each EC17 dose, animals were scored and rescue agents such as sodium fluorescein, folic acid and leucovorin were used to mitigate CRS toxicity ([33]). […]

MDA-MB-231 tumors = assay: EC17 dose finding safety study, tumor-bearing mice; format: in vivo, NSG mice; details: for higher IFNγ production in mouse plasma vs CAR-T cells only: all EC17 regimens
Protocol: All animal care and use were performed according to NIH guidelines and in compliance with protocols approved by the Purdue University Animal Use and Care Committee. Female 4 to 5-weeks-old NOD/SCID gamma (NSG™) mice (stock number: 005557) were purchased from The Jackson Laboratory (Bar Harbor, ME). Unless specifically indicated, all animals were maintained on a FA-deficient diet (TestDiet, St. Louis, MO) upon arrival and throughout the study. To establish subcutaneous xenografts, MDA-MB-231 and HOS-FRα were implanted in the right flank region at 2.5 × 10^6 and 1 × 10^6 cells per animal, respectively. For intravenous xenografts, THP1-FRβ cells were inoculated at 5 × 10^6 cells per animal. Subcutaneous tumors were measured 2–3 times per week with a caliper and calculated using the ellipsoidal formula (length x width^2)/2. […] All animal doses (CAR-T cells, EC17, sodium fluorescein) were given intravenously.
In a therapeutic setting, EC17 CAM can theoretically be given before or after CAR-T cell injection ([33]). For all intended purposes here, we administered the first dose of EC17 2–3.5 days after CAR-T cells to allow for an observation period of human T cells in tumor-bearing mice. Two batches of unsorted E2-CAR-T cells (23% or 39% EGFRt+, 1:1 CD4/CD8) were used for in vivo studies. On the day of infusion for each experiment (day 0), frozen CAR-T cells were quickly thawed at 37°C, washed 2x with Dulbecco's 1X PBS (pH 7.4) and injected into the tail veil at desired EGFRt+ E2-CAR-T cell doses. In addition, a small aliquot of CAR-T cells was analyzed by flow cytometry for CD4 to CD8 ratio and differentiation status of CAR-T cells. On the first day of EC17 dose, tumor-bearing animals were randomly assigned into groups according to their tumor sizes or the same number of days post intravenous implantation (i.e., THP1-FRβ).
For MDA-MB-231 studies, mice received a high dose (~10 million) of a “clinical facsimile” of E2-CAR-T cells (~39% EGFRt+) with a low differentiation profile. Two days later, we started them with 3 different treatment regimens of EC17 at an average tumor size of ~293 ± 39 mm^3. The EC17 dosing was given once-a-week (SIW) at 500 nmol/kg on Mondays, or as escalating doses of 5, 50, or 100, and 500 or 1,000 nmol/kg on Monday, Thursday, and Monday with a 6 day break in-between cycles. Control mice were left untreated (received CAR-T cells but no EC17). For comparison, a cohort of tumor-free littermates also received the same number of CAR-T cells without or with EC17 SIW at 500 nmol/kg. To study the effect of high dietary folate, two sets of NSG mice were placed on either a FA-replete diet (4 mg/kg, Envigo, Indianapolis, IN) or a FA-deficient diet (TestDiet, St. Louis, MO) upon arrival. On day 0, both sets of the mice received ~10 million of the same “clinical facsimile” CAR-T cells followed by no EC17 or EC17 SIW at 500 nmol/kg starting on day 3. On the first day of EC17 administration, MDA-MB-231 tumors size averaged around ~549 ± 184 mm^3 (280–918 mm^3) in FA-replete mice, and ~559 ± 165 mm^3 (356–961 mm^3) in FA-deficient mice.
as §1

## Nc1nc2ncc(CNc3ccc(C(=O)NC(CCC(=O)NCCNC(=S)Nc4ccc(-c5c6ccc(=O)cc-6oc6cc(O)ccc56)c(C(=O)O)c4)C(=O)O)cc3)nc2c(=O)[nH]1 (stereo not shown) [EC17, FA-(γ)-ethylenediamine-FITC]
[1]; 2 weekly doses EC17 500 nmol/kg, 0–5 scale
  CRS grade: 0
[1]; EC17 SIW 500 nmol/kg
  CAR-T cell expansion by flow cytometry: no CAR-T cell expansion was detected
MDA-MB-231 tumors; EC17-treated cohorts (SIW 500, 5/50/500, 5/100/1000 nmol/kg), ~10 million E2-CAR-T cells
  cures: 100%
MDA-MB-231 tumors; day 11, ~20 h after previous EC17 dose, ~10 million E2-CAR-T cells
  higher IFNγ production in mouse plasma vs CAR-T cells only: ~ 30 x
MDA-MB-231 tumors; day 12, ~42 h after previous EC17 dose, ~10 million E2-CAR-T cells
  higher IFNγ production in mouse plasma vs CAR-T cells only: ~ 10 x
MDA-MB-231 tumors; tumor-bearing animals, ~10 million E2-CAR-T cells plus EC17, last measurement
  persistence of CAR-T cells in mouse blood: up to 54 days
MDA-MB-231 tumors; tumor-bearing, ~10 million E2-CAR-T cells, continued EC17 dosing independent of the regimen, 0–5 scale
  CRS grade: 2-3
